Reference: patent publication US12728104B2, “Therapeutic methods for preventing tumor metastasis and tumor recurrence” (LUNELLA BIOTECH, INC., priority 2020, dated 2026)
Entries after “also recorded” stand apart in the source; their conditions may differ.

Experiments:
chick embryo = assay: Embryo tolerability assay (chick embryo toxicity); format: in vivo; details: for Alive / Dead: number of embryos
Experimental: a) Preparation of Chicken Embryos. […] At that moment (E9), the chorioallantoic membrane (CAM) was dropped down by drilling a small hole through the eggshell into the air sac, and a 1 cm^2 window was cut in the eggshell above the CAM (19-23).
e) Embryo Tolerability Assay: Before each administration, the treatment tolerability was evaluated by scoring the number of dead embryos.

MCF7 cells = details: cited from earlier work
MDA-MB-231 tumor growth = assay: Tumor growth assay, MDA-MB-231 cells on the chorio-allantoic membrane (CAM) in chicken eggs; format: in vivo, human; details: treated daily for 8 days
Experimental: To experimentally evaluate their functional effects in vivo, the inventors used MDA-MB-231 cells and the well-established chorio-allantoic membrane (CAM) assay in chicken eggs, to quantitatively measure tumor growth and metastasis. An inoculum of 1×10^6 MDA-MB-231 cells was added onto the CAM of each egg (day E9) and then eggs were randomized into groups. On day E10, tumors were detectable and they were then treated daily for 8 days with vehicle alone (1% DMSO in PBS) or the three Mitoriboscin compounds. In parallel, the inventors also evaluated the activity of another mitochondrial inhibitor, namely butene-1,4-bis-triphenyl-phosphonium (Bis-TPP), which was identified as an inhibitor of 3D-mammosphere formation in MCF7 cells, with an IC-50 of less than 0.5 μM.
After 8 days of drug administration (on day E18), all tumors were weighed, and the lower CAM was collected to evaluate the number of metastatic cells, as analyzed by qPCR with specific primers for Human Alu sequences.
(§1) a) Preparation of Chicken Embryos. Fertilized White Leghorn eggs were incubated at 37.5° C. with 50% relative humidity for 9 days. At that moment (E9), the chorioallantoic membrane (CAM) was dropped down by drilling a small hole through the eggshell into the air sac, and a 1 cm^2 window was cut in the eggshell above the CAM (19-23).
b) Amplification and Grafting of Tumor Cells. […]

MDA-MB-231 cells = details: cited from earlier work
MDA-MB-231 metastasis = assay: Metastasis assay, MDA-MB-231 cells in the CAM assay (qPCR for Human Alu sequences in lower CAM); format: in vivo
Experimental: MDA-MB-231 cells and the CAM assay in chicken eggs were used to quantitatively measure spontaneous tumor mestastasis. An inoculum of 1×10^6 MDA-MB-231 cells was added onto the CAM of each egg (on day E9) and then eggs were then randomized into groups. On day E10, tumors were detectable and they were then treated daily for 8 days with vehicle alone (1% DMSO in PBS) or the four mitochondrial inhibitors. After 8 days of drug administration, the lower CAM was collected to evaluate the number of metastatic cells, as analyzed by qPCR with specific primers for Human Alu sequences. […] The same procedure may be used to evaluate the anti-metastasis and anti-recurrence effects of other mitochondrial inhibitors.
as §1
b) Amplification and Grafting of Tumor Cells. The MDA-MB-231 tumor cell line was cultivated in DMEM medium supplemented with 10% FBS and 1% penicillin/streptomycin. On day E9, cells were detached with trypsin, washed with complete medium and suspended in graft medium. An inoculum of 1×10^6 cells was added onto the CAM of each egg (E9) and then eggs were randomized into groups (19-23).
d) Metastasis Assays. On day E18, a 1 cm^2 portion of the lower CAM was collected to evaluate the number of metastatic cells in 8 samples per group (n=8). Genomic DNA was extracted from the CAM (commercial kit) and analyzed by qPCR with specific primers for Human Alu sequences. Calculation of Cq for each sample, mean Cq and relative amounts of metastases for each group are directly managed by the Bio-Rad® CFX Maestro software. A one-way ANOVA analysis with post-tests was performed on all the data (19-23).

[1] = test system: CSCs in cell lines derived from 8 different cancer types; details: cell lines from 8 cancer types incl. MCF7, T47D, MDA-MB-231, MCF10.DCIS.COM; cited from earlier work

## O[C@@H]1[C@H](NCc2ccccc2)CCC[C@H]1Oc1ccccc1Oc1ccc(Cl)cc1 [23/G4]
Chick embryo; 0.5 mM
  % Alive: 70%
  % Dead: 30%
  Alive: 7
  Dead: 3
Chick embryo; 0.75 mM
  % Alive: 71.43%
  % Dead: 28.57%
  Alive: 10
  Dead: 4
Chick embryo; 1 mM
  % Alive: 80%
  % Dead: 20%
  Alive: 12
  Dead: 3
Chick embryo; 2 mM
  % Alive: 66.67%
  % Dead: 33.33%
  Alive: 10
  Dead: 5
MCF7 cells
  inhibition of 3D-mammosphere formation, active concentration range: low micro-molar range
MDA-MB-231 tumor growth
  effect on MDA-MB-231 tumor growth: minor effects
MDA-MB-231 cells
  blocking of cell migration, active concentration range: low micro-molar range
MDA-MB-231 metastasis; concentration of 0.5 mM
  effectiveness in CAM assay: minimally effective
MDA-MB-231 metastasis; higher concentrations 0.75 mM, 1 mM, 2 mM, CAM assay
  inhibition of metastasis: 70-75%

## CC[C@H]1OC(=O)[C@H](C)[C@@H](O[C@H]2C[C@@](C)(OC)[C@@H](O)[C@H](C)O2)[C@H](C)[C@@H](O[C@@H]2O[C@H](C)C[C@H](N(C)C)[C@H]2O)[C@](C)(O)C[C@@H](C)CN(C)[C@H](C)[C@@H](O)[C@]1(C)O [Azithromycin]
[1]
  inhibition of anchorage-independent propagation of CSCs: effectively inhibit

## C(=CC[P+](c1ccccc1)(c1ccccc1)c1ccccc1)C[P+](c1ccccc1)(c1ccccc1)c1ccccc1 [Bis-TPP, butene-1,4-bis-triphenyl-phosphonium]
Chick embryo; 0.5 mM
  % Alive: 58.33%
  % Dead: 41.67%
  Alive: 7
  Dead: 5
MCF7 cells; read-out: IC-50, inhibition of 3D-mammosphere formation
  IC50: < 500 nM
MDA-MB-231 metastasis; CAM assay in chicken eggs, treated daily for 8 days
  effect on MDA-MB-231 cancer metastasis: functional prevention of cancer metastasis; also recorded: significantly prevented metastasis
